Results reported in patent US7825112B2, “2-carbamide-4-phenylthiazole derivatives, preparation thereof and therapeutic use thereof” (sanofi-aventis, priority 2006, dated 2010).

How the values were obtained:
human CCR2b receptor = biological target: T1, human CCR2b receptor (Homo sapiens, UniProt P41597); assay: [125I]-MCP-1 binding displacement on CHO-K1-CCR2B cells (inhibiting activity on cells expressing the human CCR2b receptor); conditions: iodinated MCP-1 0.1 nM, 1 h 30 minutes at ambient temperature, read-out: Cl50 (concentration which inhibited 50% of the activity of the CCR2b receptor)
T1 construct: host or cells: CHO-K1
T1 sequence (P41597 1-360 isoform P41597-2): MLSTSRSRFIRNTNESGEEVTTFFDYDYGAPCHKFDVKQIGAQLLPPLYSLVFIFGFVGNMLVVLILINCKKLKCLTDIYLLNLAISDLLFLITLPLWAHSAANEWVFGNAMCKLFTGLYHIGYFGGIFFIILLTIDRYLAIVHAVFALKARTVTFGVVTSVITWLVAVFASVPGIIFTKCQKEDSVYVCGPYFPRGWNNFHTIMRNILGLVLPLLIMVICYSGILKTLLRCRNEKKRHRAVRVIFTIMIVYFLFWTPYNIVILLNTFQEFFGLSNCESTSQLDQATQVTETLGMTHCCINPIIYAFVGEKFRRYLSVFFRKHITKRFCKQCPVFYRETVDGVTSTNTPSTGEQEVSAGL
Method: The inhibiting activity of the compounds according to the invention was measured on cells expressing the human CCR2b receptor. The concentration of natural hMCP-1 agonist which inhibited 50% (Cl50) of the activity of the CCR2b receptor was 0.57 nM.
The following are brought into contact for 1 h 30 minutes at ambient temperature, in Millipore GF/B filter plates (ref. MAFBNOB 10 or 50): 50 μl of compound at 3×10^−5 M in the reaction buffer or cold MCP-1 range ((R & D Systems). Recombinant human MCP-1) (final concentration of compound: 10^−5 M), and 50 μl of iodinated MCP-1 ([^125 l]-MCP-1 human recombinant Bolton+Hunter labelled (Amersham)) at 0.3 nM in distilled water (final concentration of iodinated MCP-1: 0.1 nM), and 50 μl of CHO-K1-CCR2B cells (obtained from Euroscreen Brussels, Belgium) at 6×10^5 cells/ml (final concentration in the reaction buffer: […]). The filters were saturated beforehand with 100 μl of PEI at a final concentration of 0.0125% in PBS, for 72 h at 4° C., and the PEI was removed by filtration. The content of the wells was filtered and washed twice with the reaction buffer, and the filters were left to dry overnight. The following day, 20 μl/well of “Wallac Optiphase Super Mix” scintillant were dispensed. The filters were impregnated for 1 to 2 h and then counted with Trilux Iodine 125 for 1 min.
Reaction buffer=PBS buffer, […], 1 mM CaCl2, 5 mM MgCl2, 0.5% fatty acid-free BSA, adjusted to pH 7.4.

IC50 (human CCR2b receptor)	melting point	Compound
4 nM	153 °C	COc1ccc(C2CCCCC2)cc1-c1csc(NC(=O)N2CCN(C[C@@H]3CCCN(CCCCC(=O)O)C3)CC2)n1 [compound 9, 5-((R)-3-{4-[4-(5-cyclohexyl-2-methoxyphenyl)thiazol-2-ylcarbamoyl]piperazin-1-ylmethyl}piperidin-1-yl)pentanoic acid]
20 nM	226 °C	COc1ccc(C2CCCCC2)cc1-c1csc(NC(=O)N2CCN(C3CCOCC3)CC2)n1 [Compound No 11, 4-(tetrahydropyran-4-yl)piperazine-1-carboxylic acid [4-(5-cyclohexyl-2-methoxyphenyl)thiazol-2-yl]amide]
20 nM	204 °C	COc1ccc(C2CCCCC2)cc1-c1csc(NC(=O)N2CCN(C3CCS(=O)(=O)CC3)CC2)n1 [compound 33, 4-(1,1-dioxohexahydro-1λ^6-thiopyran-4-yl)piperazine-1-carboxylic acid [4-(5-cyclohexyl-2-methoxyphenyl)thiazol-2-yl]amide]
50 nM	114 °C	COc1ccc(C2CCCCC2)cc1-c1csc(NC(=O)N2CCN(C[C@@H]3CCCN(S(=O)(=O)C4CC4)C3)CC2)n1 [compound 29, 4-((S)-1-cyclopropanesulphonylpiperidin-3-ylmethyl)piperazine-1-carboxylic acid [4-(5-cyclohexyl-2-methoxyphenyl)thiazol-2-yl]amide]
82 nM	98 °C	COc1ccc(C2CCCCC2)cc1-c1csc(NC(=O)N2CCN(CC3CCOC(C)(C)C3)CC2)n1 (stereo not shown) [compound 40, 4-(2,2-dimethyltetrahydropyran-4-ylmethyl)piperazine-1-carboxylic acid [4-(5-cyclohexyl-2-methoxyphenyl)thiazol-2-yl]amide]
0.57 nM		hMCP-1: human monocyte chemotactic protein, CC chemokine group, natural agonist of the CCR2b receptor [reference compound]
8 nM	86 °C	CCCCc1ccc(OCC)c(-c2csc(NC(=O)N3CCN(C[C@@H]4CCCN(C5CC5)C4)CC3)n2)c1 [compound 23, 4-((S)-1-cyclopropylpiperidin-3-ylmethyl)piperazine-1-carboxylic acid [4-(5-butyl-2-ethoxyphenyl)thiazol-2-yl]amide]
4 nM		COc1ccc(C2CCCCC2)cc1-c1csc(NC(=O)N2CCN(C(=O)[C@@H]3CCCN(C4CC4)C3)CC2)n1 [compound 22, 4-((R)-1-cyclopropylpiperidine-3-carbonyl)piperazine-1-carboxylic acid [4-(5-cyclohexyl-2-methoxyphenyl)thiazol-2-yl]amide]
39 nM	118 °C	COc1ccc(C2CCCCC2)cc1-c1csc(NC(=O)N2CCN(C3CCSCC3)CC2)n1 [compound 41, 4-(tetrahydrothiopyran-4-yl)piperazine-1-carboxylic acid [4-(5-cyclohexyl-2-methoxyphenyl)thiazol-2-yl]amide]
53 nM	110 °C	COc1ccc(C2CCCCC2)cc1-c1csc(NC(=O)N2CCN(C3CCCCC3)CC2)n1 [compound 10, 4-cyclohexylpiperazine-1-carboxylic acid [4-(5-cyclohexyl-2-methoxyphenyl)thiazol-2-yl]amide]
73 nM		COc1ccc(C2CCCCC2)cc1-c1csc(NC(=O)N2CCN(CC3CCCCN3S(=O)(=O)c3cnn(C)c3C)CC2)n1 (stereo not shown) [compound 45, 4-[1-(1,5-dimethyl-1H-pyrazole-4-sulphonyl)piperidin-2-ylmethyl]piperazine-1-carboxylic acid [4-(5-cyclohexyl-2-methoxyphenyl)thiazol-2-yl]amide]
